Measurements published in patent US20250041306A1, “TARGETED PROTEASE DEGRADATION (TED) PLATFORM” (EUBULUS BIOTHERAPEUTICS INC., priority 2021, published 2025).
Like-named read-outs stand apart in the source and are kept apart here. Numbered stars: 1 amine (or outer) side, 2 acyl side, 3 side chain; on linkers, the order of the positions; unused ones are H or OH. Bridge positions count the residues as written; N and C are the ends. Square brackets hold non-standard residues; d marks the D form. Peptide text beside a SMILES is read from it. I, II: the chains in the order shown. * marks the point of attachment. X1 = NC(=O)c1ccccc1Nc1nc(Nc2ccc(N3CCN(C(=O)NC4CCC(N(CCC#Cc5ccc6c(c5)CN(C5CCC(=O)NC5=O)C6=O)C(=O)OCCS*)CC4)CC3)cc2)ncc1Cl; Succinimide(1-C2H4CO,3-yl) = O=C1CC([*:1])C(=O)N1CCC(=O)[*:2]; Thr(ol) = C[C@@H](O)[C@H](N)CO

Key:
Format in all cases: cell-based
[1] = tested on: human gastric carcinoma cells N87; assay: Cell proliferation experiment (Alarm blue), N87
Description: (§1) The cells were cultured in conventional ways, and the cells should be passed for at least 2 generations before plating. Cells at the logarithmic growth phase were collected, prepared into single cell suspensions and counted. The concentration of cells was adjusted to desired concentration, and cells were inoculated into a 96-well cell culture plate at 100 μl per well. 100 μL of complete medium of the test compound were added to each well, 2 replicate wells for each concentration were set up, and diluted with a 5-fold gradient, and continued to culture for 72 h. All cells were subjected to EC50 test for corresponding samples.
(§2) The fluorescence intensity of each well was detected using the Alarm blue method, and IC50 was calculated.
(§3) IC50 was calculated according to the following formula:
(§4) [formula] • wherein Min, Max and Slope represent the minimum, maximum and slope respectively.

[2] = tested on: Human Small Cell Lung Cancer H69; assay: Cell proliferation experiment (Alarm blue), H69
Description: as §1, §2, §3, §4

[3] = tested on: Human Small Cell Lung Cancer NCI-H82; assay: Cell proliferation experiment (Alarm blue), H82
Description: as §1, §2, §3, §4

[4] = tested on: Human Colon Cancer HT-29; assay: Cell proliferation experiment (Alarm blue), HT-29
Description: as §1, §2, §3, §4

[5] = tested on: Human Colon Cancer cells Colo205; assay: Cell proliferation experiment (Alarm blue), Colo205
Description: as §1, §2, §3, §4

[6] = N87 cells, 72 h culture, read-out: Anti cell proliferative activity EC50, N87
[7] = H69 cells, 72 h culture, read-out: Anti cell proliferative activity EC50, H69
[8] = H82 cells, 72 h culture, read-out: Anti cell proliferative activity EC50, H82
[9] = HT-29 cells, 72 h culture, read-out: Anti cell proliferative activity EC50, HT-29
[10] = Colo205 cells, 72 h culture, read-out: Anti cell proliferative activity EC50, Colo205
[11] = Homo sapiens, NCI-H69, H69 cells, 72 h culture, read-out: Anti cell proliferative activity EC50, H69
[12] = Homo sapiens, HT-29 cells, 72 h culture, read-out: Anti cell proliferative activity EC50, HT-29

| Compound | EC50 [1, 6] [nM] | EC50 [2, 7] [nM] | EC50 [3, 8] [nM] | EC50 [4, 9] [nM] | EC50 [5, 10] [nM] | other results |
| --- | --- | --- | --- | --- | --- | --- |
| N=C(N)NCCC[C@H](NC(=O)[C@H](CC(=O)O)NC(=O)CC[C@H](NC(=O)c1ccc(NCc2cnc3nc(N)[nH]c(=O)c3n2)cc1)C(=O)O)C(=O)N[C@@H](CC(=O)O)C(=O)N[C@@H](CC(=O)O)C(=O)N[C@@H](CSSCCOC(=O)N(CCC#Cc1ccc2c(c1)CN(C1CCC(=O)NC1=O)C2=O)C1CCC(NC(=O)N2CCN(c3ccc(Nc4ncc(Cl)c(Nc5ccccc5C(N)=O)n4)cc3)CC2)CC1)C(=O)O (stereo partly drawn) [UB-181327] | > 1000 | > 1000 | 283 | 855 | 243 |  |
| CC[C@@H]1C(=O)N(C)c2cnc(Nc3ccc(-c4cn([C@H]5CC[C@@H](N(CCOCCC#Cc6cccc7c6CN(C6CCC(=O)NC6=O)C7=O)C(=O)OC(C)C(C)SSC[C@H](NC(=O)CC[C@H](NC(=O)c6ccc(NCc7cnc8nc(N)[nH]c(=O)c8n7)cc6)C(=O)O)C(=O)N[C@H](Cc6ccccc6)C(=O)N[C@H]6CSSC[C@@H](C(=O)N[C@H](CO)[C@@H](C)O)NC(=O)[C@H]([C@@H](C)O)NC(=O)[C@H](CCCCN)NC(=O)[C@@H](Cc7c[nH]c8ccccc78)NC(=O)[C@H](Cc7ccccc7)NC6=O)CC5)nn4)cc3OC)nc2N1C1CCCC1 (stereo partly drawn) [UB-181268] | > 1000 | > 1000 | > 1000 | > 1000 | > 1000 |  |
| CNC(=O)c1ccccc1Nc1nc(Nc2ccc(N3CCN(C(=O)N[C@H]4CC[C@@H](N(CCC#Cc5ccc6c(c5)CN(C5CCC(=O)NC5=O)C6=O)C(=O)OCCSSC[C@H](NC(=O)[C@H](CC(=O)O)NC(=O)[C@H](CC(=O)O)NC(=O)[C@H](CCCNC(=N)N)NC(=O)[C@H](CC(=O)O)NC(=O)CCC(NC(=O)c5ccc(NCc6cnc7nc(N)[nH]c(=O)c7n6)cc5)C(=O)O)C(=O)O)CC4)CC3)cc2)ncc1Cl (stereo partly drawn) [UB-181321] |  |  |  |  |  | EC50 ([1]; 72 h): > 1000 nM; EC50 ([2]; 72 h): > 1000 nM; EC50 ([3]; 72 h): 171 nM; EC50 ([4]; 72 h): > 1000 nM; EC50 ([5]; 72 h): 239 nM |
| CNC(=O)c1ccccc1Nc1nc(Nc2ccc(N3CCN(C(=O)N[C@H]4CC[C@@H](N(CCC#Cc5ccc6c(c5)CN(C5CCC(=O)NC5=O)C6=O)C(=O)OC(C)C(C)SSC[C@H](NC(=O)CC[C@H](NC(=O)c5ccc(NCc6cnc7nc(N)[nH]c(=O)c7n6)cc5)C(=O)O)C(=O)N[C@H](Cc5ccccc5)C(=O)N[C@H]5CSSC[C@@H](C(=O)N[C@H](CO)[C@@H](C)O)NC(=O)[C@H]([C@@H](C)O)NC(=O)[C@H](CCCCN)NC(=O)[C@@H](Cc6c[nH]c7ccccc67)NC(=O)[C@H](Cc6ccccc6)NC5=O)CC4)CC3)cc2)ncc1Cl (stereo partly drawn) [UB-181266] | > 1000 | > 1000 | 152 | > 1000 | 234 |  |
| CC(C)c1cc(-c2nnc(O)n2-c2ccc3c(ccn3CCC3CCN(C(=O)CCSSCCOC(=O)N(CCC#Cc4ccc5c(c4)CN(C4CCC(=O)NC4=O)C5=O)C4CCC(NC(=O)N5CCN(c6ccc(Nc7ncc(Cl)c(Nc8ccccc8C(N)=O)n7)cc6)CC5)CC4)CC3)c2)c(O)cc1O (stereo not drawn) [UB-181294] | 818 | > 1000 | 245 | 865 | 301 |  |
| C[C@@H](O)[C@@H]1NC(=O)[C@H](CCCCN)NC(=O)[C@@H](Cc2c[nH]c3ccccc23)NC(=O)[C@H](Cc2ccccc2)NC(=O)[C@@H](NC(=O)[C@@H](Cc2ccccc2)NC(=O)[C@@H](N)CSC2CC(=O)N(CCC(=O)N[C@@H](CC(=O)O)C(=O)N[C@@H](CCCNC(=N)N)C(=O)N[C@@H](CC(=O)O)C(=O)N[C@@H](CC(=O)O)C(=O)N[C@@H](CSSCCOC(=O)N(CCC#Cc3ccc4c(c3)CN(C3CCC(=O)NC3=O)C4=O)C3CCC(NC(=O)N4CCN(c5ccc(Nc6ncc(Cl)c(Nc7ccccc7C(N)=O)n6)cc5)CC4)CC3)C(=O)O)C2=O)CSSC[C@@H](C(=O)N[C@H](CO)[C@@H](C)O)NC1=O (stereo partly drawn) [UB-181342] (I: H-C[dF]CF[dW]KTC[Thr(ol)] / II: DRDDC(X1)-OH; linker I:1-II:N via Succinimide(1-C2H4CO,3-yl); disulfide I:3-I:8) |  |  |  |  |  | EC50 ([1]; 72 h): > 1000 nM; EC50 ([2]; 72 h): > 1000 nM; EC50 ([3]; 72 h): 746 nM; EC50 ([4]; 72 h): > 1000 nM; EC50 ([5]; 72 h): 847 nM |
| CNC(=O)c1ccccc1Nc1nc(Nc2ccc(N3CCN(C(=O)NC4CCC(N(CCC#Cc5ccc6c(c5)CN(C5CCC(=O)NC5=O)C6=O)C(=O)OCc5ccc(NC(=O)[C@H](CC(N)=O)NC(=O)[C@H](C)NC(=O)[C@H](C)NC(=O)CCCCCN6C(=O)CC(SC[C@H](NC(=O)CC[C@H](NC(=O)c7ccc(NCc8cnc9nc(N)[nH]c(=O)c9n8)cc7)C(=O)O)C(=O)N[C@H](Cc7ccccc7)C(=O)N[C@H]7CSSC[C@@H](C(=O)N[C@H](CO)[C@@H](C)O)NC(=O)[C@H]([C@@H](C)O)NC(=O)[C@H](CCCCN)NC(=O)[C@@H](Cc8c[nH]c9ccccc89)NC(=O)[C@H](Cc8ccccc8)NC7=O)C6=O)cc5)CC4)CC3)cc2)ncc1Cl (stereo partly drawn) [UB-181263] | > 1000 | 192 | 53 | > 1000 | 9.1 |  |
| CC(C)c1cc(-c2nnc(O)n2-c2ccc3c(ccn3CCC3CCN(C(=O)CCSC4CC(=O)N(CCCCCC(=O)N[C@@H](C)C(=O)N[C@@H](C)C(=O)N[C@@H](CC(N)=O)C(=O)Nc5ccc(COC(=O)N(CCC#Cc6ccc7c(c6)CN(C6CCC(=O)NC6=O)C7=O)C6CCC(NC(=O)N7CCN(c8ccc(Nc9ncc(Cl)c(Nc%10ccccc%10C(N)=O)n9)cc8)CC7)CC6)cc5)C4=O)CC3)c2)c(O)cc1O.O=CO (stereo partly drawn) [UB-181290] |  |  |  |  |  | Anti cell proliferative activity EC50, N87 ([1]; N87 cells, 72 h culture): insoluble; Anti cell proliferative activity EC50, H69 ([2]; H69 cells, 72 h culture): insoluble; Anti cell proliferative activity EC50, H82 ([3]; H82 cells, 72 h culture): insoluble; Anti cell proliferative activity EC50, HT-29 ([4]; HT-29 cells, 72 h culture): insoluble; Anti cell proliferative activity EC50, Colo205 ([5]; Colo205 cells, 72 h culture): insoluble |
| CC[C@@H]1C(=O)N(C)c2cnc(Nc3ccc(-c4cn([C@H]5CC[C@@H](N(CCOCCC#Cc6cccc7c6CN(C6CCC(=O)NC6=O)C7=O)C(=O)OCCSSC[C@H](NC(=O)CC[C@H](NC(=O)c6ccc(NCc7cnc8nc(N)[nH]c(=O)c8n7)cc6)C(=O)O)C(=O)N[C@H](Cc6ccccc6)C(=O)N[C@H]6CSSC[C@@H](C(=O)N[C@H](CO)[C@@H](C)O)NC(=O)[C@H]([C@@H](C)O)NC(=O)[C@H](CCCCN)NC(=O)[C@@H](Cc7c[nH]c8ccccc78)NC(=O)[C@H](Cc7ccccc7)NC6=O)CC5)nn4)cc3OC)nc2N1C1CCCC1 (stereo partly drawn) [UB-181339] | 456 | > 1000 | 236 | > 1000 | 249 |  |
| NC(=O)c1ccccc1Nc1nc(Nc2ccc(N3CCN(C(=O)NC4CCN(CCNCCC#Cc5ccc6c(c5)CN(C5CCC(=O)NC5=O)C6=O)CC4)CC3)cc2)ncc1Cl (stereo not drawn) [UB-181274] |  |  |  |  |  | EC50 ([1]; Homo sapiens, 72 h, N87 cells, 72 h culture, read-out: Anti cell proliferative activity EC50, N87): 18.2 nM; EC50 [2, 11]: > 1000 nM; EC50 ([3]; Homo sapiens, NCI-H82, 72 h, H82 cells, 72 h culture, read-out: Anti cell proliferative activity EC50, H82): 27.7 nM; EC50 [4, 12]: 522 nM; EC50 ([5]; Homo sapiens, COLO 205, 72 h, Colo205 cells, 72 h culture, read-out: Anti cell proliferative activity EC50, Colo205): 49.4 nM |
| CNC(=O)c1ccccc1Nc1nc(Nc2ccc(N3CCN(C(=O)N[C@H]4CC[C@@H](N(CCC#Cc5ccc6c(c5)CN(C5CCC(=O)NC5=O)C6=O)C(=O)OCc5ccc(NC(=O)[C@H](CC(N)=O)NC(=O)[C@H](C)NC(=O)[C@H](C)NC(=O)COCCOCCOCCOC)cc5)CC4)CC3)cc2)ncc1Cl (stereo partly drawn) [UB-181242] |  |  |  |  |  | EC50 ([1]; Homo sapiens, N87 cells, 72 h culture, read-out: Anti cell proliferative activity EC50, N87): 226 nM; EC50 [2, 11]: > 1000 nM; EC50 ([3]; Homo sapiens, NCI-H82, H82 cells, 72 h culture, read-out: Anti cell proliferative activity EC50, H82): 94.2 nM; EC50 [4, 12]: > 1000 nM; EC50 ([5]; Homo sapiens, COLO 205, Colo205 cells, 72 h culture, read-out: Anti cell proliferative activity EC50, Colo205): 75.2 nM |
| CC(C)c1cc(-c2nnc(O)n2-c2ccc3c(ccn3CCC3CCN(C(=O)NCCOCCOCCOCCOCCOCCOCCOCCOCCC(=O)N[C@@H](CSSCCOC(=O)N(CCC#Cc4ccc5c(c4)CN(C4CCC(=O)NC4=O)C5=O)C4CCC(NC(=O)N5CCN(c6ccc(Nc7ncc(Cl)c(Nc8ccccc8C(N)=O)n7)cc6)CC5)CC4)C(=O)N[C@H](Cc4ccccc4)C(=O)N[C@H]4CSSC[C@@H](C(=O)N[C@H](CO)[C@@H](C)O)NC(=O)[C@H]([C@@H](C)O)NC(=O)[C@H](CCCCN)NC(=O)[C@@H](Cc5c[nH]c6ccccc56)NC(=O)[C@H](Cc5ccccc5)NC4=O)CC3)c2)c(O)cc1O (stereo partly drawn) [UB-181297] | > 1000 | > 1000 | > 1000 | > 1000 | > 1000 |  |
